# Results published in US6737383B1, “Herbicidal oxadiazolidines” (priority 1999, dated 2004).
# Tests used:
# bedstraw = assay: Test B pre/postemergence bedstraw; assay type: in vivo, Galium aparine
# How it was run: (§1)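 Test chemicals in a non-phytotoxic solvent mixture with surfactant were sprayed preemergence onto planted seeds and postemergence onto plants 2 to 18 cm tall (1- to 4-leaf stage). After twelve to sixteen days in a greenhouse, injury was visually rated against untreated controls from 0 (no effect) to 10 (complete control).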
# blackgrass = assay: Test B pre/postemergence blackgrass; assay type: in vivo, Alopecurus myosuroides
# How it was run: as §1
# surinam grass = assay: Test B pre/postemergence surinam grass; assay type: in vivo, Brachiaria decumbens
# How it was run: as §1
# smallflower flatsedge = assay: Test B flood test smallflower flatsedge; assay type: in vivo, Cyperus difformis
# How it was run: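 Flood test on plants grown to the 2-leaf stage; treated plants kept in greenhouse twelve to sixteen days, then visually rated against controls on a 0 (no effect) to 10 (complete control) scale.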
# [1] = Postemergence, Rate 125 g/ha, scale 0 to 10, 0 is no effect, 10 is complete control
# [2] = Preemergence, Rate 62 g/ha, scale of 0 to 10 where 0 is no effect and 10 is complete control
# [3] = Preemergence, Rate 250 g/ha, scale of 0 to 10 where 0 is no effect and 10 is complete control
# [4] = Rate 62 g/ha, Postemergence, scale 0 to 10, 0 no effect, 10 complete control
# [5] = Rate 250 g/ha, Postemergence, scale of 0 to 10 where 0 is no effect and 10 is complete control
# [6] = Preemergence, Rate 500 g/ha, scale of 0 to 10 where 0 is no effect and 10 is complete control
# [7] = Rate 500 g/ha, Postemergence, scale 0 to 10, 0 no effect, 10 complete control
# [8] = Pre-emergence, Rate 1000 g/ha, scale 0 to 10 (0 no effect, 10 complete control)
# [9] = Rate 125 g/ha, Pre-emergence, flood test species, scale 0 to 10 where 0 is no effect and 10 is complete control
# [10] = Rate 250 g/ha, Pre-emergence, flood-test species, scale 0 to 10, 0 is no effect, 10 is complete control
# [11] = Rate 500 g/ha, Pre-emergence, flood test species, scale 0 to 10 (0 no effect, 10 complete control)
# [12] = Postemergence, Rate 500 g/ha, scale of 0 to 10 where 0 is no effect and 10 is complete control
# [13] = Preemergence, Rate 125 g/ha, scale of 0 to 10 where 0 is no effect and 10 is complete control
# [14] = Preemergence, Rate 250 g/ha, scale 0 to 10, 0 is no effect, 10 is complete control
# [15] = Preemergence, Rate 500 g/ha, scale 0 to 10, 0 is no effect, 10 is complete control
# [16] = Rate 125 g/ha, Postemergence, scale 0 to 10, 0 is no effect, 10 is complete control
# [17] = Rate 125 g/ha, Postemergence, scale of 0 to 10 where 0 is no effect and 10 is complete control
SMILES,Bedstraw plant response rating (bedstraw; [2]),"Bedstraw plant response rating (0 to 10 scale) (bedstraw; Preemergence, Rate 125 g/ha)",Bedstraw plant response rating (bedstraw; [3]),Bedstraw plant response rating (bedstraw; [4]),"Plant response rating, Bedstraw (bedstraw; [5])",Blackgrass plant response rating (blackgrass; [2]),"Blackgrass plant response rating (0 to 10 scale) (blackgrass; Preemergence, Rate 125 g/ha)",Blackgrass plant response rating (blackgrass; [3]),Blackgrass plant response rating (blackgrass; [6]),Blackgrass plant response rating (blackgrass; [4]),"Plant response rating, Blackgrass (blackgrass; [5])",B. signalgrass plant response rating (surinam grass; [2]),"B. signalgrass plant response rating (0 to 10 scale, 0 is no effect, 10 is complete control) (surinam grass; Preemergence, Rate 125 g/ha)",B. signalgrass plant response rating (surinam grass; [3]),B. signalgrass plant response rating (surinam grass; [6]),B. signalgrass plant response rating (surinam grass; [4]),"Plant response rating, B. signalgrass (surinam grass; [5])",S. Flatsedge plant response rating (smallflower flatsedge; [8]),S. Flatsedge plant response rating (smallflower flatsedge; [9]),S. Flatsedge plant response rating (smallflower flatsedge; [11]),other results
CC(C)N(C(=O)n1oc(=O)n(-c2ccc3ccccc3c2)c1=O)c1ccccc1 [Compound 332],0,0,0,0,0,0,0,0,0,0,0,0,0,0,0,0,0,0,0,0,"Plant response rating, Bedstraw (bedstraw; [1]): 0; Plant response rating, Blackgrass (blackgrass; [1]): 0; Plant response rating, Blackgrass (blackgrass; [7]): 0; Plant response rating, B. signalgrass (surinam grass; [1]): 0; Plant response rating, B. signalgrass (surinam grass; [7]): 0; S. Flatsedge plant response rating (smallflower flatsedge; [10]): 0"
Cc1nc(C)c(C(C)n2c(=O)on(C(=O)N(c3ccc(F)cc3F)C(C)C)c2=O)s1 (stereo not drawn) [Compound 443],–,–,–,0,–,–,–,–,–,0,–,–,–,–,–,0,–,–,–,0,"Blackgrass plant response rating (blackgrass; Postemergence, Rate 250 g/ha, scale 0 to 10): 0; Blackgrass plant response rating (blackgrass; [12]): 0; Plant response rating, Blackgrass (blackgrass; [2]): 0; Plant response rating, Blackgrass (blackgrass; [13]): 0; Blackgrass plant response rating (blackgrass; [14]): 0; Blackgrass plant response rating (blackgrass; [15]): 0; Blackgrass plant response rating (blackgrass; [16]): 0; B. signalgrass plant response rating (surinam grass; Postemergence, Rate 250 g/ha, scale 0 to 10, 0 no effect, 10 complete control): 0; B. signalgrass plant response rating (surinam grass; [12]): 0; Plant response rating, B. signalgrass (surinam grass; [2]): 0; Plant response rating, B. signalgrass (surinam grass; [13]): 0; B. signalgrass plant response rating (surinam grass; [14]): 0; B. signalgrass plant response rating (surinam grass; [15]): 10; B. signalgrass plant response rating (surinam grass; [16]): 0; Plant response rating, S. Flatsedge (0 to 10 scale, 0 is no effect, 10 is complete control) (smallflower flatsedge; Rate 62 g/ha, flood test species, Pre-emergence, visual evaluation after twelve to sixteen days): 0; S. Flatsedge plant response rating (0 to 10 scale, 0 is no effect, 10 is complete control) (smallflower flatsedge; Rate 125 g/ha, under heading Pre-emergence, flood test species, visual evaluation after twelve to sixteen days): 0; S. Flatsedge plant response rating (smallflower flatsedge; Rate 250 g/ha, Pre-emergence (flood test species), scale 0 to 10, 0 is no effect, 10 is complete control): 0"
Cc1ccccc1-n1c(=O)on(C(=O)N(c2ccc3ccccc3c2)C(C)C)c1=O [Compound 306],0,0,0,0,0,0,0,0,0,0,0,0,0,0,0,0,0,0,0,0,Bedstraw plant response rating (bedstraw; [6]): 0; Bedstraw plant response rating (bedstraw; [17]): 0; Bedstraw plant response rating (bedstraw; [7]): 0; Blackgrass plant response rating (blackgrass; [17]): 0; Blackgrass plant response rating (blackgrass; [7]): 0; B. signalgrass plant response rating (surinam grass; [17]): 0; B. signalgrass plant response rating (surinam grass; [7]): 0; S. Flatsedge plant response rating (smallflower flatsedge; [10]): 0
